Assay results taken from publication PMC7066107 (Investigational New Drugs, 2019).
“Also recorded” adds a separate entry of the source.

Columns and labels:
[1] = test system: Japanese patients with advanced solid tumours
Procedure: The study consisted of two stages (Fig. 1).
Recruitment of patients to each dose level was sequential using the standard 3 + 3 study design. […] At each dose level, treatment was continued until disease progression, DLT or other adverse event (AE) that would hinder the patient’s participation in the study, or until the patient requested discontinuation from the study.
Safety, pharmacokinetics, efficacy, exploratory pharmacodynamics and genetic outcomes were assessed in this study. The safety outcomes were the incidence, type, severity and time of onset of DLTs, AEs and treatment-related AEs (TRAEs). […] In addition, the maximum tolerated dose (MTD) was determined on the basis of DLTs.
(§1) Safety endpoints were analysed in the safety population, which consisted of patients who received ≥1 dose of the study drug. Efficacy endpoints were analysed in the full analysis set, which consisted of patients who received ≥1 dose of the study drug and underwent ≥1 post-baseline efficacy assessment. A summary of AEs, TRAEs and DLTs by mapped term, appropriate thesaurus level and severity was provided for each cohort. Summary statistics, including mean, standard deviation, coefficient of variation, median, and minimum and maximum, were calculated for pharmacokinetic and pharmacodynamic parameters.
Adverse events that could be considered dose-limiting toxicities
Grade 4 neutropenia persisting for ≥5 days or requiring treatment with G-CSF
Grade 4 thrombocytopenia or grade 3 thrombocytopenia requiring platelet transfusion
Grade ≥3 non-hematologic toxicity (excluding transient electrolyte abnormalities) Abnormal
toxicity will be assessed as DLTs only if they meet the following criteria. Grade ≥3 laboratory
ALP: A grade ≥3 increase persisting for ≥3 days will be assessed as a DLT.
Diarrhoea, nausea, vomiting, skin toxicity: A grade ≥3 event persisting for ≥1 week

advanced solid tumours = test: Efficacy by RECIST version 1.1 (best overall response, disease control, PFS); conditions: Stage 1
Procedure: The efficacy outcomes were the response rate, disease control rate, progression-free survival (PFS) and duration of response. Efficacy outcomes were assessed using the Response Evaluation Criteria in Solid Tumours (RECIST) version 1.1.
Efficacy endpoints were analysed in the full analysis set, which consisted of patients who received ≥1 dose of the study drug and underwent ≥1 post-baseline efficacy assessment.

IDO1 = conditions: following oral administration; cited from earlier work
[2] = test system: patients with advanced or recurrent solid tumours; conditions: cited from earlier work
[3] = Plasma pharmacokinetics of navoximod in phase I study; conditions: for Dose proportionality of AUC and Cmax: 200-1000 mg
Procedure: The efficacy outcomes were the response rate, disease control rate, progression-free survival (PFS) and duration of response. Efficacy outcomes were assessed using the Response Evaluation Criteria in Solid Tumours (RECIST) version 1.1. Plasma concentrations of kynurenine and tryptophan and their ratios and the presence of UGT1A1*6 and UGT1A1*28 polymorphisms were the exploratory outcomes of this study.
as §1
Schedule for blood sampling for pharmacokinetic assessments
Visit pharmacokinetics kynurenine/tryptophan
(time window) pharmacodynamics (time
Cycle 0 Day 1 5 min before dosing (−30 min) 5 min before dosing (−30 min)
30 min after dosing (±5 min) 30 min after dosing (±5 min)
1 hr after dosing (±5 min) 1 hr after dosing (±5 min)
2 hr after dosing (±5 min) 2 hr after dosing (±5 min)
4 hr after dosing (±10 min) 4 hr after dosing (±10 min)
6 hr after dosing (±30 min) 6 hr after dosing (±30 min)
8 hr after dosing (±30 min) 8 hr after dosing (±30 min)
12 hr after dosing (±30 min) 12 hr after dosing (±30 min)
Cycle 0 Day 2 24 hr after dosing on Cycle 0 Day 1 24 hr after dosing on Cycle 0 Day 1
Cycle 0 Day 3 48 hr after dosing on Cycle 0 Day 1 –
(±2 hr), before dosing on Cycle 1
Cycle 1 Day 8 5 min before dosing (−30 min) –
Cycle 2 Day 1 5 min before dosing (−30 min) 5 min before dosing (−30 min)
12 hr after first dose (±60 min), 12 hr after first dose (±60 min),
before second dose before second dose
Cycle 4 Day 1 5 min before dosing (−30 min) –
Cycle 9 Day 1 5 min before dosing (−30 min) –
Last observation Any time –
12 hr after dosing (±60 min) 12 hr after dosing (±60 min)
(±2 hr), before dosing on Cycle 1, Day

SMILES: O[C@H](C[C@H]1c2c(F)cccc2-c2cncn21)[C@H]1CC[C@H](O)CC1 [Navoximod]
- Maximum tolerated dose (MTD) ([1]; Stage 1, monotherapy up to 1000 mg BID): not reached
- Any TRAE, All grades ([1]; human, in vivo): 6 n
- Any TRAE, Grade ≥ 3 ([1]; human, in vivo): 2 n
- Chromaturia, All grades ([1]; human, in vivo): 5 n
- Chromaturia, Grade ≥ 3 ([1]; human, in vivo): 0 n
- Grade 4 or 5 TRAEs ([1]; human, in vivo): No grade 4 or 5 TRAEs were observed
- Incidence of chromaturia ([1]; human, in vivo): 55%
- Maculopapular rash, All grades ([1]; human, in vivo): 2 n
- Maculopapular rash, Grade ≥ 3 ([1]; human, in vivo): 1 n
- Patients with Grade ≥ 3 TRAEs ([1]; human, in vivo): 20%
- Patients with TRAE chromaturia, any grade ([1]; human, in vivo): 50%
- Patients with TRAE maculopapular rash, any grade ([1]; human, in vivo): 20%
- Patients with TRAEs ([1]; human, in vivo): 60%
- Symptomatic grade 3 or higher TRAE maculopapular rash ([1]; human, in vivo): 5%
- Complete response (CR) and partial response (PR) (advanced solid tumours): not observed
- PFS, range (advanced solid tumours): 9 to 259 days
- Best overall response progressive disease (PD) (advanced solid tumours; all doses, n = 10): five
- Patients with stable disease (advanced solid tumours; all doses, n = 10): 50%
- Best overall response progressive disease (PD) (advanced solid tumours; navoximod 400 mg): 3 n
- Best overall response progressive disease (PD) (advanced solid tumours; navoximod 600 mg): 2 n
- Reduction of plasma and tissue kynurenine concentrations (IDO1): approximately 50%
- MTD ([2]; monotherapy 100-800 mg twice daily, 22 patients): not reached
- CRs or PRs ([2]; monotherapy): no CRs or PRs were observed
- Half-life ([2]; monotherapy): approximately 12 h
- Linearity of pharmacokinetics ([2]; monotherapy): linear pharmacokinetics
- Time to peak plasma concentration ([2]; monotherapy): approximately 60 min
- Decrease of plasma kynurenine levels ([2]; navoximod 400 mg, 600 mg or 800 mg, 2–4 h after administration): 25–30%
- Patients with Grade 3 or higher AEs ([2]; two patients of 22, lower gastrointestinal haemorrhage, diverticulitis): 9%
- Dose-corrected navoximod exposure by UGT1A1 genotype ([3]; patients with UGT1A1 −/*28): higher
- Dose-corrected navoximod exposure by UGT1A1 genotype ([3]; patients with UGT1A1 −/−, −/*6 and *6/*6): similar
- Dose proportionality of AUC and Cmax ([3]; single oral dose): dose-proportional
- Dose proportionality of AUC and Cmax ([3]; single oral dose, listed as navoximod): linear pharmacokinetics; also recorded: changed dose-proportionally
- Time at which mean plasma concentration peaked ([3]; single oral dose, Stage 1 or Stage 2): 15 to 60 min
